In patent US20140162974A1, “METHODS FOR MODULATION OF PHOSPHORUS AND FGF23” (Luitpold Pharmaceuticals, Inc., priority 2012, published 2014):

Assays:
phosphate = assay: Prior studies 1VIT04002/1VIT04003: phosphate change after FCM; format: in vivo, human; settings: iron deficiency anemia secondary to heavy uterine bleeding; measured at baseline and days 7, 14, 28, 42; N=228
[1] = VIT-30 safety: composite cardiovascular endpoint and adverse events; format: in vivo
Experimental: Study visits were on Days 0, 3, 7, 10, 14, 28, 56, and 120. A phone assessment occurred on Day 90.
The Venofer Group received 5 doses of Venofer, 200 mg for a total dose of 1,000 mg.
For Venofer, subjects received, as an IV push injection over 2 to 5 minutes, 200 mg on Days 0, 7, and 14 with 2 additional doses given: 1 between Days 0 and 7 and the other between Days 7 and 14 (i.e., for a total of 5 doses [1,000 mg]).
For safety, the primary measure was the proportion of subjects experiencing treatment-emergent adverse event included in the primary composite safety endpoint. Treatment-emergent events included events that started on or after the first dose of randomized treatment. The composite safety endpoint included: deaths due to any cause; nonfatal myocardial infarction; nonfatal stroke; unstable angina requiring hospitalization; congestive heart failure requiring hospitalization or medical intervention; arrhythmias; protocol-defined hypertensive events; and protocol-defined hypotensive events. These events were adjudicated in a blinded fashion. Supportive safety measures included: proportion of subjects who died (all cause mortality); time to first event comprising the primary composite safety endpoint; proportion of subjects reporting treatment-emergent adverse events, overall and related; proportion of subjects reporting treatment-emergent serious adverse events, overall and related; incidence of treatment-emergent potentially clinically significant (PCS) clinical laboratory values; and incidence of treatment-emergent PCS vital sign values.
The Safety Population consisted of all subjects who received a dose of randomized treatment. All safety analyses were performed with the Safety Population.
Safety assessments were summarized for the Safety Population unless stated otherwise. Subjects were analyzed under the treatment actually received.
The precision of the estimated treatment group difference was measured by the width of the 95% CI.
The number and percent of subjects who reported treatment-emergent adverse events were summarized for each treatment group. A treatment-emergent adverse event was an event that began after receipt of randomized treatment.
The adverse event profile was characterized with severity (as graded by Version 3.0 of the NCI CTCAE) and relationship (unrelated and related) to study drug. Related adverse events were events that were possibly or probably related to treatment in the Investigator's judgment. Events with unknown severity or relationship were counted as unknown.
The number and percent of subjects who reported treatment-emergent serious adverse events were similarly summarized for each treatment group. The number and percent of subjects who reported treatment-emergent adverse events resulting in discontinuation of study drug were similarly summarized for each treatment group.
Time to the first adverse event comprising the primary composite safety endpoint was summarized with the Kaplan-Meier approach. […] The log-rank statistic were used to compare time-to-event curves between treatment groups and a 95% CI of the hazard ratio was calculated with a Cox proportional hazards model.

[2] = Example 3 trial: adverse events; format: in vivo, human
Experimental: Study visits were on Days 0 (when iron was infused), 1 (24 hours after iron infusion), 7, 14, and 35. The primary objectives were to determine the effect of iron deficiency on cFGF23 and iFGF23 levels and the effect of intravenous iron on iFGF23 and cFGF23 levels.
Randomization occurred centrally via a fax-based system. […] The complete dose was infused over 15 minutes on day 0. […] An initial test dose of 25 mg was administered slowly over 5 minutes.
Laboratory testing of blood and three-hour urine collections was performed at the screening visit and on study days 0 (when iron was infused), 1 (24 hours after iron infusion), 7, 14, and 35 (see e.g., FIG. 2A). Any subject who experienced a reduction in serum phosphate below the normal range after day 0 underwent additional phosphate measurements at 14 day intervals following day 35 until the level returned to the normal reference range. Safety evaluations of all subjects included ascertainment of adverse events, physical examinations at all study visits, and laboratory assessments. Any subject who withdrew from the study received a follow-up phone call to ascertain adverse events 30 days after they received study drug.
The pre-specified primary endpoints were changes in blood and urine markers of phosphate and bone metabolism among the evaluable population, defined as those subjects with baseline and at least one post-randomization set of FGF23 and blood and urinary phosphate levels. Secondary endpoints included the proportion of subjects achieving a hemoglobin increase […] anytime between baseline and day 35, and the change from baseline to highest hemoglobin, ferritin, and TSAT anytime during the 35-day study period. Additional safety endpoints included incidence, severity, and seriousness of adverse events, and incidence of treatment-emergent abnormal clinical laboratory values in the safety population, defined as all subjects who received the study drug regardless of subsequent laboratory testing.
The number and proportion of subjects who experienced an adverse event in the safety population was summarized and rates between the iron treatment groups using Fisher's exact test were compared for the categorical safety endpoints. Analyses were conducted using SAS version 9 (Cary, N.C.). All statistical tests were 2-tailed and p values<0.05 were considered statistically significant.

[3] = 13-week cumulative dose pre-clinical studies; format: in vivo, dogs and rats; settings: over 13 weeks; clinical signs of iron accumulation in liver, spleen, kidneys

polynuclear iron (III)-hydroxide 4(R)-(poly-(1→4)-O-α-glucopyranosyl)-oxy-2(R),3(S),5(R),6-tetrahydroxy-hexanoate [FCM]
mean change in phosphate (phosphate): 1.9 mg/dL | tolerability ([1]; 2 injections of 750 mg): well tolerated | subjects who discontinued the study or study drug subsequent to a protocol-defined hypertensive event ([1]; 10 subjects): 10.5% | hazard ratio (FCM versus Venofer) excluding protocol-defined hypertensive and hypotensive events ([1]; Cox proportional hazards): 1.017 | hazard ratio (FCM versus Venofer) for death due to any cause, nonfatal myocardial infarction, or nonfatal stroke ([1]; Cox proportional hazards): 0.685 | protocol-defined hypertensive events ([1]; component of primary composite safety endpoint): 7.45% | drug related treatment emergent adverse event: dizziness ([1]; in vivo): 2.4% | drug related treatment emergent adverse event: flushing ([1]; in vivo): 3.0% | drug related treatment emergent adverse event: hypertension ([1]; in vivo): 4.6% | drug related treatment emergent adverse event: nausea ([1]; in vivo): 8.6% | drug related treatment emergent adverse event: vomiting ([1]; in vivo): 2.0% | serious adverse event: cardiac failure congestive ([1]; in vivo): 2.4% | subjects prematurely discontinued from study drug due to adverse events ([1]; in vivo): 2.6% | subjects with Grade 3 treatment emergent adverse events ([1]; in vivo): 12.9% | subjects with Grade 4 treatment emergent adverse events ([1]; in vivo): 4.7% | subjects with Grade 5 (fatal) treatment emergent adverse events ([1]; in vivo): 1.2% | subjects with adjudicated events of death due to any cause, nonfatal myocardial infarction, or nonfatal stroke ([1]; in vivo): 1.88% | subjects with adverse event that resulted in discontinuation from the study ([1]; in vivo): 2.4% | subjects with at least 1 serious adverse event ([1]; in vivo): 15.8% | subjects with at least 1 treatment emergent adverse event ([1]; in vivo): 65.4% | treatment emergent adverse event: hypertension ([1]; in vivo): 10.7% | treatment emergent adverse event: nausea ([1]; in vivo): 13.5% | subjects with at least 1 drug related treatment emergent adverse event ([1]; possibly or probably related): 23.4% | subjects who experienced one or more adverse events [2]: 68% | subjects with adverse events considered to be related to study drug [2]: 32% | adverse event: reduced serum phosphate noted by subjects' physicians ([2]; p=0.008 between groups): 32% | Discontinuation from study due to adverse event, n (%) ([2]; safety population): 2 (8%) n (%) | Patients experiencing one or more adverse events related to study drug, n (%) ([2]; safety population): 8 (32%) n (%) | Patients experiencing one or more adverse events, n (%) ([2]; safety population): 17 (68%) n (%) | Patients experiencing one or more serious adverse events, n (%) ([2]; safety population): 0 (0%) n (%) | cumulative dose with no observed adverse effect level [3]: up to 117 mg iron/kg body weight
